In PubChem BioAssay (NCI):
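Grown in 96-well plates, cells were treated for 48 hours with each compound at five concentrations. Insufficient inhibition: endpoint recorded as highest concentration tested. GI50 marks 50% less growth. TGI is the concentration that stops growth completely.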

Legend:
Assay in all cases: NCI anticancer screen, dose series, 48 h
OVCAR-3 ovarian = system: OVCAR-3 ovarian
SF-295 CNS = system: SF-295 CNS
M14 melanoma = system: M14 melanoma
SF-539 CNS = system: SF-539 CNS
IGROV1 ovarian = system: IGROV1 ovarian
DU-145 prostate = system: DU-145 prostate
SN12C renal = system: SN12C renal
RXF 393 renal = system: RXF 393 renal
PC-3 prostate = system: PC-3 prostate
HS 578T breast = system: HS 578T breast
UACC-257 melanoma = system: UACC-257 melanoma
OVCAR-5 ovarian = system: OVCAR-5 ovarian
HT29 colon = system: HT29 colon
HCT-15 colon = system: HCT-15 colon
SK-MEL-28 melanoma = system: SK-MEL-28 melanoma
LOX IMVI melanoma = system: LOX IMVI melanoma
RPMI-8226 leukemia = system: RPMI-8226 leukemia
BT-549 breast = system: BT-549 breast
OVCAR-8 ovarian = system: OVCAR-8 ovarian
SNB-75 CNS = system: SNB-75 CNS
NCI-H226 lung = system: NCI-H226 lung
786-0 renal = system: 786-0 renal
SK-MEL-2 melanoma = system: SK-MEL-2 melanoma
MDA-MB-435 = system: MDA-MB-435
T-47D breast = system: T-47D breast
MDA-MB-231 breast = system: MDA-MB-231 breast
SW-620 colon = system: SW-620 colon
SNB-19 CNS = system: SNB-19 CNS
SK-OV-3 ovarian = system: SK-OV-3 ovarian
UO-31 renal = system: UO-31 renal
K-562 leukemia = system: K-562 leukemia
HL-60(TB) leukemia = system: HL-60(TB) leukemia
CAKI-1 renal = system: CAKI-1 renal
UACC-62 melanoma = system: UACC-62 melanoma
U251 CNS = system: U251 CNS
NCI-H23 lung = system: NCI-H23 lung
MOLT-4 leukemia = system: MOLT-4 leukemia
EKVX NSCLC = system: EKVX NSCLC
COLO 205 colon = system: COLO 205 colon
HCT-116 colon = system: HCT-116 colon
TK-10 renal = system: TK-10 renal
KM12 colon = system: KM12 colon
ACHN renal = system: ACHN renal
NCI/ADR-RES ovarian = system: NCI/ADR-RES ovarian
MALME-3M melanoma = system: MALME-3M melanoma
HOP-62 NSCLC = system: HOP-62 NSCLC
SF-268 CNS = system: SF-268 CNS
CCRF-CEM leukemia = system: CCRF-CEM leukemia
A498 renal = system: A498 renal
SK-MEL-5 melanoma = system: SK-MEL-5 melanoma
MCF7 breast = system: MCF7 breast
OVCAR-4 ovarian = system: OVCAR-4 ovarian
HCC-2998 colon = system: HCC-2998 colon
NCI-H522 lung = system: NCI-H522 lung
HOP-92 NSCLC = system: HOP-92 NSCLC
A549 NSCLC = system: A549 NSCLC
NCI-H460 lung = system: NCI-H460 lung

For `O=C1CC(c2ccc(O)cc2)C2(O1)C(=O)OC(C(O)CO)C2O` (stereo not given), the TGI (OVCAR-3 ovarian) was > 100 µM, the TGI (SF-295 CNS) was > 100 µM and the TGI (M14 melanoma) was > 100 µM. For the same molecule, the TGI (SF-539 CNS) was > 100 µM, the TGI (IGROV1 ovarian) was > 100 µM and the TGI (DU-145 prostate) was > 100 µM. The TGI (SN12C renal) was > 100 µM, the TGI (RXF 393 renal) was > 100 µM and the TGI (PC-3 prostate) was > 100 µM. For the same molecule, the TGI (HS 578T breast) was > 100 µM, the TGI (UACC-257 melanoma) was > 100 µM and the TGI (OVCAR-5 ovarian) was > 100 µM. For the same molecule, the TGI (HT29 colon) was > 100 µM, the TGI (HCT-15 colon) was > 100 µM and the TGI (SK-MEL-28 melanoma) was > 100 µM. The TGI (LOX IMVI melanoma) was > 100 µM, the TGI (RPMI-8226 leukemia) was > 100 µM and the TGI (BT-549 breast) was > 100 µM. For the same molecule, the TGI (OVCAR-8 ovarian) was > 100 µM, the TGI (SNB-75 CNS) was > 100 µM and the TGI (NCI-H226 lung) was > 100 µM. The TGI (786-0 renal) was > 100 µM, the TGI (SK-MEL-2 melanoma) was > 100 µM and the TGI (MDA-MB-435) was > 100 µM. For the same molecule, the TGI (T-47D breast) was > 100 µM, the TGI (MDA-MB-231 breast) was > 100 µM and the TGI (SW-620 colon) was > 100 µM. The TGI (SNB-19 CNS) was > 100 µM, the TGI (SK-OV-3 ovarian) was > 100 µM and the TGI (UO-31 renal) was > 100 µM. The TGI (K-562 leukemia) was > 100 µM, the TGI (HL-60(TB) leukemia) was > 100 µM and the TGI (CAKI-1 renal) was > 100 µM. For the same molecule, the TGI (UACC-62 melanoma) was > 100 µM, the TGI (U251 CNS) was > 100 µM and the TGI (NCI-H23 lung) was > 100 µM. The TGI (MOLT-4 leukemia) was > 100 µM, the TGI (EKVX NSCLC) was > 100 µM and the TGI (COLO 205 colon) was > 100 µM. For the same molecule, the TGI (HCT-116 colon) was > 100 µM, the TGI (TK-10 renal) was > 100 µM and the TGI (KM12 colon) was > 100 µM. For the same molecule, the TGI (ACHN renal) was > 100 µM, the TGI (NCI/ADR-RES ovarian) was > 100 µM and the TGI (MALME-3M melanoma) was > 100 µM. The TGI (HOP-62 NSCLC) was > 100 µM, the TGI (SF-268 CNS) was > 100 µM and the TGI (CCRF-CEM leukemia) was > 100 µM. For the same molecule, the TGI (A498 renal) was > 100 µM, the TGI (SK-MEL-5 melanoma) was > 100 µM and the TGI (MCF7 breast) was > 100 µM.
`CCc1nccc2c1nc(-c1nonc1N)n2CC` was tested, and the GI50 (OVCAR-3 ovarian) was > 25 µM, the TGI (OVCAR-3 ovarian) was > 25 µM and the GI50 (SF-295 CNS) was > 7.78 µM. For the same molecule, the TGI (SF-295 CNS) was > 25 µM, the GI50 (M14 melanoma) was > 25 µM and the TGI (M14 melanoma) was > 25 µM. For the same molecule, the GI50 (SF-539 CNS) was > 25 µM, the TGI (SF-539 CNS) was > 25 µM and the GI50 (IGROV1 ovarian) was 16.8 µM. For the same molecule, the TGI (IGROV1 ovarian) was > 25 µM, the GI50 (DU-145 prostate) was > 25 µM and the TGI (DU-145 prostate) was > 25 µM. For the same molecule, the GI50 (SN12C renal) was > 25 µM, the TGI (SN12C renal) was > 25 µM and the GI50 (RXF 393 renal) was 13.6 µM. The TGI (RXF 393 renal) was > 25 µM, the GI50 (PC-3 prostate) was > 25 µM and the TGI (PC-3 prostate) was > 25 µM. For the same molecule, the GI50 (HS 578T breast) was > 19.7 µM, the TGI (HS 578T breast) was > 25 µM and the GI50 (UACC-257 melanoma) was > 25 µM. For the same molecule, the TGI (UACC-257 melanoma) was > 25 µM, the GI50 (OVCAR-5 ovarian) was > 17.8 µM and the TGI (OVCAR-5 ovarian) was > 25 µM. The GI50 (OVCAR-4 ovarian) was > 25 µM, the TGI (OVCAR-4 ovarian) was > 25 µM and the GI50 (HT29 colon) was > 25 µM. For the same molecule, the TGI (HT29 colon) was > 25 µM, the GI50 (HCT-15 colon) was > 25 µM and the TGI (HCT-15 colon) was > 25 µM. The GI50 (SK-MEL-28 melanoma) was > 25 µM, the TGI (SK-MEL-28 melanoma) was > 25 µM and the GI50 (LOX IMVI melanoma) was > 25 µM. For the same molecule, the TGI (LOX IMVI melanoma) was > 25 µM, the GI50 (RPMI-8226 leukemia) was > 25 µM and the TGI (RPMI-8226 leukemia) was > 25 µM. For the same molecule, the GI50 (HCC-2998 colon) was > 25 µM, the TGI (HCC-2998 colon) was > 25 µM and the GI50 (BT-549 breast) was > 23.3 µM. The TGI (BT-549 breast) was > 25 µM, the GI50 (OVCAR-8 ovarian) was > 25 µM and the TGI (OVCAR-8 ovarian) was > 25 µM. For the same molecule, the GI50 (SNB-75 CNS) was > 23.4 µM, the TGI (SNB-75 CNS) was > 25 µM and the GI50 (NCI-H226 lung) was > 18 µM. For the same molecule, the TGI (NCI-H226 lung) was > 25 µM, the GI50 (786-0 renal) was > 25 µM and the TGI (786-0 renal) was > 25 µM. The GI50 (SK-MEL-2 melanoma) was > 25 µM, the TGI (SK-MEL-2 melanoma) was > 25 µM and the GI50 (MDA-MB-435) was > 25 µM. For the same molecule, the TGI (MDA-MB-435) was > 25 µM, the GI50 (T-47D breast) was > 25 µM and the TGI (T-47D breast) was > 25 µM. For the same molecule, the GI50 (MDA-MB-231 breast) was > 25 µM, the TGI (MDA-MB-231 breast) was > 25 µM and the GI50 (SW-620 colon) was > 25 µM. For the same molecule, the TGI (SW-620 colon) was > 25 µM, the GI50 (SNB-19 CNS) was > 25 µM and the TGI (SNB-19 CNS) was > 25 µM. The GI50 (SK-OV-3 ovarian) was > 25 µM, the TGI (SK-OV-3 ovarian) was > 25 µM and the GI50 (UO-31 renal) was 9.73 µM. For the same molecule, the TGI (UO-31 renal) was > 25 µM, the GI50 (K-562 leukemia) was > 25 µM and the TGI (K-562 leukemia) was > 25 µM. The GI50 (HL-60(TB) leukemia) was > 25 µM, the TGI (HL-60(TB) leukemia) was > 25 µM and the GI50 (CAKI-1 renal) was 12.2 µM. For the same molecule, the TGI (CAKI-1 renal) was > 25 µM, the GI50 (UACC-62 melanoma) was > 25 µM and the TGI (UACC-62 melanoma) was > 25 µM. For the same molecule, the GI50 (NCI-H522 lung) was > 17.7 µM, the TGI (NCI-H522 lung) was > 25 µM and the GI50 (U251 CNS) was > 25 µM. The TGI (U251 CNS) was > 25 µM, the GI50 (NCI-H23 lung) was > 25 µM and the TGI (NCI-H23 lung) was > 25 µM. For the same molecule, the GI50 (MOLT-4 leukemia) was > 25 µM, the TGI (MOLT-4 leukemia) was > 25 µM and the GI50 (EKVX NSCLC) was > 25 µM. The TGI (EKVX NSCLC) was > 25 µM, the GI50 (COLO 205 colon) was > 25 µM and the TGI (COLO 205 colon) was > 25 µM. For the same molecule, the GI50 (HCT-116 colon) was 20.4 µM, the TGI (HCT-116 colon) was > 25 µM and the GI50 (TK-10 renal) was 7.83 µM. The TGI (TK-10 renal) was > 25 µM, the GI50 (KM12 colon) was > 25 µM and the TGI (KM12 colon) was > 25 µM. For the same molecule, the GI50 (ACHN renal) was > 23.2 µM, the TGI (ACHN renal) was > 25 µM and the GI50 (NCI/ADR-RES ovarian) was > 25 µM. The TGI (NCI/ADR-RES ovarian) was > 25 µM, the GI50 (HOP-92 NSCLC) was 1390 nM and the TGI (HOP-92 NSCLC) was 21.5 µM. For the same molecule, the GI50 (MALME-3M melanoma) was > 25 µM, the TGI (MALME-3M melanoma) was > 25 µM and the GI50 (A549 NSCLC) was > 25 µM. For the same molecule, the TGI (A549 NSCLC) was > 25 µM, the GI50 (HOP-62 NSCLC) was > 25 µM and the TGI (HOP-62 NSCLC) was > 25 µM. The GI50 (SF-268 CNS) was > 25 µM, the TGI (SF-268 CNS) was > 25 µM and the GI50 (CCRF-CEM leukemia) was > 25 µM. For the same molecule, the TGI (CCRF-CEM leukemia) was > 25 µM, the GI50 (A498 renal) was 7.1 µM and the TGI (A498 renal) was > 25 µM. The GI50 (SK-MEL-5 melanoma) was > 25 µM, the TGI (SK-MEL-5 melanoma) was > 25 µM and the GI50 (MCF7 breast) was > 25 µM. The TGI (MCF7 breast) was > 25 µM, the GI50 (NCI-H460 lung) was > 25 µM and the TGI (NCI-H460 lung) was > 25 µM.
